Data: ChEMBL document CHEMBL1152529, “Synthesis, antifungal, haemolytic and cytotoxic activities of a series of bis(alkylpyridinium)alkanes” (Bioorg Med Chem, 2009)
Converted amounts (≈) assume the structure as drawn. The source made the active and inactive calls. The calls are words filed in the database; no cut-off is given here.

Experiments:
[1] = system: Aspergillus flavus; experiment: Antifungal activity against Aspergillus flavus ATCC 204304 after 48 to 72 hrs by broth microdilution method; assay type: functional
[2] = system: Pichia kudriavzevii; experiment: Antifungal activity against Candida krusei ATCC 6258 after 48 to 72 hrs by broth microdilution method; assay type: functional
[3] = system: Candida parapsilosis; experiment: Antifungal activity against Candida parapsilosis ATCC 22019 after 48 to 72 hrs by broth microdilution method; assay type: functional; conditions: Lodderomyces parapsilosis
[4] = system: Rhizopus arrhizus; experiment: Antifungal activity against Rhizopus oryzae 05-203111 after 48 to 72 hrs by broth microdilution method; assay type: functional
[5] = system: Nakaseomyces glabratus; experiment: Antifungal activity against Candida glabrata 04-202345 after 48 to 72 hrs by broth microdilution method; assay type: functional
[6] = system: Cryptococcus neoformans; experiment: Antifungal activity against Cryptococcus neoformans ATCC 90112 after 48 to 72 hrs by broth microdilution method; assay type: functional; conditions: Cryptococcus neoformans, ATCC 90112; read-out: MIC
[7] = system: Curvularia australiensis; experiment: Antifungal activity against Bipolaris australiensis 03-201798 after 48 to 72 hrs by broth microdilution method; assay type: functional
[8] = system: Aspergillus terreus; experiment: Antifungal activity against Aspergillus terreus 05-202844 after 48 to 72 hrs by broth microdilution method; assay type: functional
[9] = system: Exophiala spinifera; experiment: Antifungal activity against Exophiala spinifera 03-200803 after 48 to 72 hrs by broth microdilution method; assay type: functional
[10] = system: Lomentospora prolificans; experiment: Antifungal activity against Scedosporium prolificans 05-203060 after 48 to 72 hrs by broth microdilution method; assay type: functional
[11] = system: Candida albicans; experiment: Antifungal activity against Candida albicans ATCC 10231 after 48 to 72 hrs by broth microdilution method; assay type: functional; conditions: Candida albicans, ATCC 10231; read-out: MIC
[12] = system: Scedosporium apiospermum; experiment: Antifungal activity against Scedosporium apiospermum 05-203100 after 48 to 72 hrs by broth microdilution method; assay type: functional
[13] = system: Aspergillus fumigatus; experiment: Antifungal activity against Aspergillus fumigatus ATCC 204305 after 48 to 72 hrs by broth microdilution method; assay type: functional
[14] = Cytotoxicity against human erythrocytes assessed as hemolysis after 1 hr; assay type: cell-based, Erythrocyte
[15] = target: Phospholipase A2, major isoenzyme (Sus scrofa, UniProt P00592); experiment: Inhibition of porcine pancreatic PLA2 after 1 hr by radiometric method
[16] = system: Cryptococcus neoformans var. grubii H99; experiment: Inhibition of lysophospholipase acyltransferase activity of Cryptococcus neoformans var. grubii H99 PLB assessed as formation of radiolabeled dipalmitoyl phosphatidylcholine at 0.25 to 250 uM at pH 4 by radiometric assay
[17] = system: MDCK; experiment: Cytotoxicity against MDCK cells after 3 hrs by MTS assay; assay type: cell-based; conditions: Canis lupus familiaris
[18] = Inhibition of phospholipid fatty acyl chain hydrolysis activity of Cryptococcus neoformans var. grubii H99 PLB assessed as formation of radiolabeled free fatty acid at pH 4 by radiometric assay
[19] = system: A549; experiment: Cytotoxicity against human A549 cells after 3 hrs by MTS assay; assay type: cell-based; conditions: A549, 3 h
[20] = system: Cryptococcus neoformans var. grubii H99; experiment: Inhibition of lysophospholipid fatty acyl chain hydrolysis activity of Cryptococcus neoformans var. grubii H99 PLB assessed as formation of radiolabeled free fatty acid at 0.25 to 250 uM at pH 4 by radiometric assay

Chain of Phospholipase A2, major isoenzyme (P00592 whole entry): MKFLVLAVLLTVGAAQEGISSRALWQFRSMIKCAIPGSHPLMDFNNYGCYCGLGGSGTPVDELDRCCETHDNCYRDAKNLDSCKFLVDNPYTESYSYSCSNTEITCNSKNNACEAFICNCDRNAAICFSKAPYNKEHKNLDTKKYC

| MIC [6] | MIC [11] | IC50 [15] | Activity [16] | IC50 [18] | Activity [20] | Structure (SMILES) | HC50 at 1 h [14] | IC50 [17] | IC50 [19] | further results |
| --- | --- | --- | --- | --- | --- | --- | --- | --- | --- | --- |
| 2.7 µM | 2.7 µM | – | – | – | – | CCCCCCCCc1cc[n+](CCCCCCCCCCCC[n+]2ccc(CCCCCCCC)cc2)cc1 | 98 µM | – | – | – |
| 11 µM | 22 µM | > 250 µM | inactive | 34 µM | inactive | CC(C)(C)c1cc[n+](CCCCCCCCCCCC[n+]2ccc(C(C)(C)C)cc2)cc1 | > 350 µM | > 350 µM | > 350 µM | – |
| – | – | – | inactive | – | inactive | CCCCCc1cc[n+](CCCCCCCCCCCC[n+]2ccc(CCCCC)cc2)cc1 | – | – | – | – |
| 2.7 µM | 1.4 µM | > 250 µM | inactive | 6 µM | inactive | CCCCCCc1cc[n+](CCCCCCCCCCCC[n+]2ccc(CCCCCC)cc2)cc1 | 129 µM | 61 µM | 48 µM | – |
| 22 µM | 11 µM | – | – | – | – | c1ccc(Cc2cc[n+](CCCCCCCCCCCC[n+]3ccc(Cc4ccccc4)cc3)cc2)cc1 | – | – | – | – |
| 2.7 µM | 5.5 µM | 67 µM | inactive | 57 µM | inactive | CC(C)CCc1cc[n+](CCCCCCCCCCCC[n+]2ccc(CCC(C)C)cc2)cc1 | > 350 µM | > 350 µM | > 350 µM | – |
| 88 µM | 22 µM | > 250 µM | inactive | > 250 µM | inactive | Cc1cc[n+](CCCCCCCCCCCC[n+]2ccc(C)cc2)cc1 | – | > 350 µM | > 350 µM | – |
| 44 µM | 22 µM | – | – | – | – | CC(C)c1cc[n+](CCCCCCCCCCCC[n+]2ccc(C(C)C)cc2)cc1 | – | > 350 µM | > 350 µM | – |

| Structure (SMILES) | MIC [6] | MIC [11] | IC50 [15] | Activity [16] | IC50 [18] | Activity [20] | HC50 at 1 h [14] | IC50 [17] | IC50 [19] | further results |
| --- | --- | --- | --- | --- | --- | --- | --- | --- | --- | --- |
| C[C@@H]1[C@H](O)[C@@H](C)/C=C/C=C/C=C/C=C/C=C/C=C/C=C/[C@H](O[C@@H]2O[C@H](C)[C@@H](O)[C@H](N)[C@@H]2O)C[C@@H]2O[C@](O)(C[C@@H](O)C[C@@H](O)[C@H](O)CC[C@@H](O)C[C@@H](O)CC(=O)O[C@H]1C)C[C@H](O)[C@H]2C(=O)O [AMPHOTERICIN B] | 0.54 µM (≈ 0.499 µg/mL) | 0.54 µM (≈ 0.499 µg/mL) | – | – | – | – | – | – | – | MIC [1]: 0.54 µM (≈ 0.499 µg/mL); MIC [2]: 0.54 µM (≈ 0.499 µg/mL); MIC [3]: 0.13 µM (≈ 0.12 µg/mL); MIC [4]: 0.06 µM (≈ 0.0554 µg/mL); MIC [5]: 1.1 µM (≈ 1.02 µg/mL); MIC [7]: 0.03 µM (≈ 0.0277 µg/mL); MIC [8]: 1.1 µM (≈ 1.02 µg/mL); MIC [9]: 0.27 µM (≈ 0.25 µg/mL); MIC [10]: 4.3 µM (≈ 3.97 µg/mL); MIC [12]: 17 µM (≈ 15.7 µg/mL); MIC [13]: 0.54 µM (≈ 0.499 µg/mL) |
| CCCc1cc[n+](CCCCCCCCCCCC[n+]2ccc(CCC)cc2)cc1 | 44 µM | 11 µM | – | – | – | – | – | – | – | – |
| c1ccc(CCCc2cc[n+](CCCCCCCCCCCC[n+]3ccc(CCCc4ccccc4)cc3)cc2)cc1 | 2.7 µM | 2.7 µM | 104 µM | inactive | 5 µM | inactive | 67 µM | 65 µM | 55 µM | – |
| CCCCc1cc[n+](CCCCCCCCCCCC[n+]2ccc(CCCC)cc2)cc1 | 11 µM | 5.5 µM | – | – | – | – | > 350 µM | 150 µM | 215 µM | – |
| CCCCCc1ccc[n+](CCCCCCCCCCCC[n+]2cccc(CCCCC)c2)c1 | 11 µM | 5.5 µM | – | – | – | – | > 350 µM | – | – | – |
| CCc1ccc[n+](CCCCCCCCCCCC[n+]2cccc(CC)c2)c1 | 88 µM | 44 µM | – | – | – | – | – | – | – | – |
